The source of these data is US5840721A, “Imidazole derivatives as MDR modulators” (Ontogen Corporation, priority 1997, dated 1998).

Molecules are shown by their SMILES. pEC50: −log10 of the molar value.

One experiment deals with CEM/VLB1000 cell line. Briefly: Cytotoxicity potentiation: enhancement of vinblastine cytotoxicity in MDR cell line (alamar blue). In kind it is cell-based, human. The note with it: Homo sapiens, midpoint of minimum and maximum cytotoxicity induced by 3-5 μg/mL vinblastine and compound, 48 hours incubation, alamar blue 24 hours, read-out: Cytotocicity Potentiation (EC50). How it is done:
Multidrug-resistant cell lines are easily obtainable for in vitro determination of drug sensitization by compounds of the present invention. In vitro potentiation of antineoplastic cytotoxicity by the imidazole derivatives of the present invention was measured in both CEM/VLB1000 and SK/VLB1000 cell lines. The multidrug resistant cell lines were obtained from Dr. Victor Ling, Ontario Cancer Institute, Toronto, Canada. The CEM/VLB 1000 cell line was maintained as a suspension in minimum essential medium supplemented with 10% fetal bovine serum in a humidied atmosphere of 95% air and 5% CO2 while the SK/VLB 1000 cell line was maintained as adherent cells using the identical medium conditions as the CEM cells. The CEM/VLB 1000 cells were seeded at a density of 5×10^4 cells/well in a 96 well microtiter plate while the SK/VLB 1000 cell line was seeded at a density of 2,500 cells/well after trypsinization.
As a reminder, the pEC50 is the negative decadic logarithm of the EC50, by convention in mol/L. For the compound `CC(=O)/C=C/c1ccc(-c2nc(-c3ccc(N(C)C)cc3)c(-c3ccc(N(C)C)cc3)[nH]2)cc1` [Example 116, 2-[4-(3-methylcarbonyl-trans-1-propen-1-yl)phenyl]-4,5-bis (4-N,N-dimethylaminophenyl) imidazole], the pEC50 is 6.64.

On to `CCOC/C=C/c1ccc(-c2nc(-c3ccc(OCC)cc3)c(-c3ccc(OCC)cc3)n2CCCn2ccnc2)cc1` [Example 106, 1-(3-imidazole-1-yl-propyl)-2-[4-(3-ethoxy-trans-1-propen-1-yl)phenyl]-4,5bis (4-diethoxyphenyl) imidazole], for which the pEC50 is 6.42.

With `CNc1ccc(-c2[nH]c(-c3ccc(/C=C/c4nc5ccccc5s4)cc3)nc2-c2ccc(N(C)C)cc2)cc1` [Example 63, 2-[trans-2-(2-benzthiazolyl)ethenylphenyl]-4-(4-N-dimethylaminophenyl)-5-(4-N-methylaminophenyl) imidazole], the negative logarithm of the EC50 (pEC50) was 6.49. Same read-out and setting: under `CCOC(=O)c1cc(-c2ccc(-c3nc(-c4ccc(N(C)C)cc4)c(-c4ccc(N(C)C)cc4)[nH]3)cc2)no1` [Example 98, 2-[4-(5-ethylcarboxyisoxazol-3-yl)-phenyl]-4,5-bis (4-N,N-dimethylamainophenyl) imidazole] stands 6.22; under `CCOC/C=C/c1ccc(-c2nc(-c3ccc(N4CCOCC4)cc3)c(-c3ccc(N4CCOCC4)cc3)[nH]2)cc1` [Example 92, 2-[4-(3-ethoxy-trans-1-propen-1-yl)phenyl]-4,5-bis (4-N-morpholinophenyl) imidazole], 6.66. As to `CN(C)c1ccc(-c2nc(-c3ccc(/C=C/C#N)cc3)[nH]c2-c2ccc(N(C)C)cc2)cc1` [Example 64, 2-[trans-2-(2-cyano)ethenylphenyl]-4,5-(4-N,N-dimethylaminophenyl) imidazole], the pEC50 is 6.26.

For the compound `CNc1ccc(-c2[nH]c(-c3ccc(/C=C/C(=O)OC)cc3)nc2-c2ccc(N(CCOC)CCOC)cc2)cc1` [Example 69, 2-(trans-2-methoxycarbonyl-ethenylphenyl)-4-[4-N,N-di(2methoxyethyl)aminophenyl]-5-(4-N-methylaminophenyl) imidazole], the pEC50 is 6.48.

Take `CNc1ccc(-c2nc(-c3ccc(/C=C/c4nc5ccccc5o4)cc3)[nH]c2-c2ccc(N3CCCC3)cc2)cc1` [Example 60, 2-[trans-2-(2-benzoxazolyl)ethenylphenyl]-4-(4-N-methylaminophenyl)-5-(4-pyrrolidinophenyl) imidazole]: the pEC50 is 6.35. On the same count and under the same terms, under `CCOC/C=C/c1ccc(-c2nc(-c3ccc(OC(C)C)cc3)c(-c3ccc(OC(C)C)cc3)[nH]2)cc1` [Example 104, 2-[4-(3-ethoxy-trans-1-propen-1-yl)phenyl]-4,5-bis (4diisopropyloxyphenyl) imidazole] stands 6.60; under `CCOC/C=C/c1ccc(-c2nc(-c3ccc(NC(C)C)cc3)c(-c3ccc(NC)cc3)[nH]2)cc1` [Example 95, 2-[4-(3-ethoxy-trans-1-propen-1-yl)phenyl]-4-(4-N-methylaminophenyl)-5-(4-N-isopropylaminophenyl) imidazole], 7.30; under `CCOC/C=C/c1ccc(-c2nc(-c3ccc(N4CCOCC4)cc3)c[nH]2)cc1` [Example 125, 2-[4-(3-ethoxy-trans-1-propen-1-yl)phenyl]-4-(4-N-morpholinophenyl) imidazole], 6.43. On the same count and under the same terms, under `CNc1ccc(-c2nc(-c3ccc(/C=C/C(=O)OC)cc3)[nH]c2-c2ccc(N3CCCC3)cc2)cc1` [Example 67, 2-(trans-2-methoxycarbonyl-ethenylphenyl)-4-(4-N-methylaminophenyl)5-(4-pyrrolidinophenyl) imidazole] stands 7.01; under `CN(C)c1ccc(-c2nc(-c3ccc(/C=C/CO)cc3)n(C)c2-c2ccc(N(C)C)cc2)cc1` [Example 114, 1-methyl-2-[4-(3-hydroxy-trans-1-propen-1-yl)phenyl]-4,5-bis (4-N,N-dimethylaminophenyl) imidazole], 6.20; under `CCOC/C=C/c1ccc(-c2nc(-c3ccc(NC)cc3)c(-c3ccc(N4CCCC4)cc3)[nH]2)cc1` [Example 91, 2-[4-(3-ethoxy-trans-1-propen-1-yl)phenyl]-4-(4-N-methylaminophenyl)-5(4-pyrrolidinophenyl) imidazole], 6.96. The same measure, in the same setting: in the case of `CCOC/C=C/c1ccc(-c2nc(-c3ccc(N(C)C)cc3)c(-c3ccc(N4CCCC4)cc3)[nH]2)cc1` [Example 90, 2-[4-(3-ethoxy-trans-1-propen-1-yl)phenyl]-4-(4-N-dimethylaminophenyl)-5-(4-pyrrolidinophenyl) imidazole] it was 6.92; in that of `COC(=O)/C=C/c1ccc(-c2nc(-c3ccc(N4CCOCC4)cc3)c(-c3ccc(N4CCOCC4)cc3)[nH]2)cc1` [Example 71, 2-(trans-2-methoxycarbonyl-ethenylphenyl)-4,5-bis (4-N-morpholinophenyl) imidazole], 6.43. For `CCOC/C=C/c1ccc(-c2nc(-c3ccc(N4CCOCC4)cc3)c(C)[nH]2)cc1` [Example 127, 2-[4-(3-ethoxy-trans-1-propen-1-yl)phenyl]-4-(4-N-morpholinophenyl)-5methyl-imidazole], the pEC50 was 6.48. On the same count and under the same terms, in the case of `CCOC/C=C/c1ccc(-c2nc(-c3ccc(NC(C)C)cc3)c(-c3ccc(NC(C)C)cc3)[nH]2)cc1` [Example 119, 2-[4-(3-ethoxy-trans-1-propen-1-yl)phenyl]-4,5-bis-(4-N-isopropylaminophenyl) imidazole] it was 7.17; in that of `CCOC/C=C/c1ccc(-c2nc(-c3ccc(N(CC)CC)cc3)c[nH]2)cc1` [Example 108, 2-[4-(3-ethoxy-trans-1-propen-1-yl)phenyl]-4-(4-N,N-diethylphenyl) imidazole], 6.52; in that of `CCOC/C=C/c1ccc(-c2nc(-c3ccc(NC)cc3)c(-c3ccc(N4CCOCC4)cc3)[nH]2)cc1` [Example 94, 2-[4-(3-ethoxy-trans-1-propen-1-yl)phenyl]-4-(4-N-methylaminophenyl) -5(4-N-morpholinophenyl) imidazole], 6.60.

Regarding `CCOC/C=C/c1ccc(-c2nc(-c3ccc(N(CC)CC)cc3)c(-c3ccc(N(CC)CC)cc3)[nH]2)cc1` [Example 86, 2-[4-(3-ethoxy-trans-1-propen-1-yl)phenyl]-4,5-bis (4-N,N-diethylaminophenyl) imidazole], the negative logarithm of the EC50 (pEC50) is 6.59. For `CCCN(CCC)c1ccc(-c2c[nH]c(-c3ccc(/C=C/COCC)cc3)n2)cc1` [Example 122, 2-[4-(3-ethoxy-trans-1-propen-1-yl)phenyl]-4-(4-N,N-dipropylphenyl) imidazole], the pEC50 is 6.55. Still for that read-out and setting: in the case of `COCCNc1ccc(-c2[nH]c(-c3ccc(/C=C/C#N)cc3)nc2-c2ccc(N(C)C)cc2)cc1` [Example 65] it was 6.60; in that of `CCOC/C=C/c1ccc(-c2nc(-c3ccc(NC(C)C)cc3)c[nH]2)cc1` [Example 123, 2-[4-(3-ethoxy-trans-1-propen-1-yl)phenyl]-4-(4-N-isopropylphenyl) imidazole], 6.47. On the same count and under the same terms, under `CCOC/C=C/c1ccc(-c2nc(-c3ccc(N4CCCC4)cc3)c(-c3ccc(N4CCCC4)cc3)[nH]2)cc1` [Example 89, 2-[4-(3-ethoxy-trans-1-propen-1-yl)phenyl]-4,5-bis (4-pyrrolidinophenyl) imidazole] stands 6.62; under `CCOC/C=C/c1ccc(-c2nc(-c3ccc(OC)cc3)c(-c3ccc(OC)cc3)n2CCCn2ccnc2)cc1` [Example 105, 1-(3-imidazole-1-yl-propyl)-2-[4-(3-ethoxy-trans-1-propen-1-yl)phenyl]-4,5bis (4-dimethoxyphenyl) imidazole], 6.19. Take `COC/C=C/c1ccc(-c2nc(-c3ccc(N4CCCC4)cc3)c(-c3ccc(N4CCCC4)cc3)[nH]2)cc1` [Example 88, 2-[4-(3-methoxy-trans-1-propen-1-yl)phenyl]-4,5-bis (4-pyrrolidinophenyl) imidazole]: the pEC50 was 6.59.

As to `C=CCN(CC=C)c1ccc(-c2nc(-c3ccc(/C=C/C(=O)OC)cc3)[nH]c2-c2ccc(F)cc2)cc1` [Example 66, 2-(trans-2-methoxycarbonyl-ethenylphenyl)-4-(4-N,N-diallylaminophenyl)5-(4-fluoro-phenyl) imidazole], the pEC50 is 6.07. Same read-out and setting: under `CCOC/C=C/c1ccc(-c2nc3cc(OC)ccc3[nH]2)cc1` [Example 118] stands 6.00.

Still in this experiment, the particulars now being: midpoint of minimum and maximum cytotoxicity induced by 3-5 μg/mL vinblastine and compound, 48 hours incubation, alamar blue 24 hours, read-out: Cytotocicity Potentiation (EC50).
Consider `CNc1ccc(-c2[nH]c(-c3ccc(/C=C/COc4ccccc4)cc3)nc2-c2ccc(N(C)C)cc2)cc1` [Example 78, 2-[4-(3-phenoxy-trans-1-propen-1-yl)phenyl]-4-(4-N-dimethylaminophenyl)-5-(4-N-methylaminopheny) imidazole], for which the pEC50 was 6.35. On the same count and under the same terms, under `CCN(CC)C/C=C/c1ccc(-c2nc(-c3ccc(N(C)C)cc3)c(-c3ccc(N(C)C)cc3)[nH]2)cc1` [Example 80, 2-[4-(3-N,N-diethylamino-trans-1-propen-1-yl)phenyl]-4,5-bis (4-N,N-dimethylaminophenyl) imidazole] stands 6.06; under `CNc1ccc(-c2[nH]c(-c3ccc(/C=C/COc4ccc(OC)c(OC)c4)cc3)nc2-c2ccc(N(C)C)cc2)cc1` [Example 79, 2-{4-[3-(3,4-dimethoxy-phenoxy)-trans-1-propen-1-yl]phenyl}-4-(4-N-dimethylaminophenyl)-5-(4-N-methylaminopheny) imidazole], 5.92.
